Assay results as given in patent US9645138B2, “Method to evaluate the tissue targeting of a molecule of interest” (IMABIOTECH, priority 2013, dated 2017).
Like-named read-outs stand apart in the source and are kept apart here.

Columns and labels:
[1] = MALDI mass spectrometry imaging of mouse kidney sections after oral co-administration (Example 1)
Description: (§1) The target tissue, hereinafter “tissue 1”, comprises the medulla and renal calices.
(§2) The non-target adjacent tissue, hereinafter “tissue 2”, is also considered and comprises the renal cortex region.
(§3) Wild-type mice of Swiss strain weighing 25-40 g from Charles River Laboratories were used. […] Mice were sacrificed by CO2 asphyxiation. Kidneys were then removed and plunged into 100% isopentane solution cooled by liquid nitrogen for rapid freezing. Finally, kidneys were stored at −80° C.
(§4) Kidneys were sectioned into 10 μm thick layers (sagittal sections) using a Microm HM560 (Thermo Scientific, France) cooled at −21° C. The sections were then deposited on conductive ITO (indium tin oxide) slides (Delta Technology, USA). Finally, the sections were kept in the cryostat chamber 30 min for cryodrying and then placed in a desiccator for 30 minutes.
(§5) A CHCA matrix was used for the analysis of all kidney tissue sections. This matrix was prepared at a concentration of 10 mg/ml in acetonitrile/water+0.1% TFA (6:1, v/v). The matrix solution was deposited using the SunCollect spraying system (SunChrom, Germany) following optimized protocol.
(§6) The images were obtained using an AutoFlex Speed MALDI-TOF mass spectrometer (Bruker Daltonics, Bremen, Germany) equipped with a Smartbeam II laser. The data was generated in positive reflectron mode. A total of 500 spectra were obtained for each spot with a 1000 Hz laser frequency and a 200×200 μm^2 image spatial resolution on a mass range of 100 to 1000 Da. The FlexImaging version 4.0 software was used to reconstruct the images and Quantinetix 1.6 software (ImaBiotech, Loos, France) permitted the extraction of spectral intensities of ions corresponding to each studied molecule.
(§7) The imaging data treatment software Quantinetix is used to extract relative intensities of each ion of interest and control compound for each position (or voxel) within each drawn region.
(§8) The next step is to normalize the whole dataset in order to compare them. The highest intensity related to each ion is used to normalize the intensities per position. One calculates mean normalized intensities for each ion and tissue type.
(§9) By definition, one considers that positive control compound factor F1 is equal to 100% whereas negative control compound factor F1 is equal to 0%.
(§10) F2 factor calculation is performed using normalized intensity values from the previous F1 factor evaluation. Position per position, one assesses the standard deviations of intensity values of the molecule of interest and the negative control with positive control one at the level of the target tissue (T1).
(§11) By definition, the positive control compound's factor F2 is considered equal to 100% whereas the negative control compound's factor F2 is equal to 0%.

[2] = test system: receptor in the brain (GABA); assay: Receptor occupancy / adsorption by MALDI imaging of rat brain sections, Diazepam dosed and Lorazepam washing (Example 2)
Description: FIG. 7 explains the methodology of adsorption of a molecule on tissue using the example of the receptor occupancy process. In this way, it is possible to measure the occupancy efficiency of the receptor by the drug (agonist) administered to the animal compared with an antagonist molecule. In this example, all the steps of the methodology are described: the dosed tissue analysis alone, the washing step with the antagonist solution of the control tissue and the combined dosed/washing analysis of the administrated sample. No negative marker is required for this kind of experiment.
Of course, in an almost identical manner an imaging device other that MALDI can be used, such as the following: SIMS, DESI, DIOS, ICP, MALDI microscope, SNOM, SMALDI, LA-ICP, ESI (liquid extraction on tissue), MILDI, JEDI, ELDI, etc.
Wild-type rats weighing 35-40 g were used. […] Animals (dosed and control rats) were sacrificed by CO2 asphyxiation. […] Finally, brains were stored at −80° C.
Brains (control and dosed tissues) were sectioned into 10 μm thick layers (coronal section) using a Microm HM560 (Thermo Scientific, France) cooled at −20° C.
The antagonist solution was prepared from a stock solution of Lorazepam at 1 mg/ml in methanol (100%). The final concentration of the washing solution was fixed at 100 pmol/μL in methanol/water+0.1% TFA (7:3). The concentration of the antagonist is a crucial factor for receptor occupancy that improves the binding capacity of the molecule. 20 μL of the solution was spotted on the tissue section (one dosed and one control sample) and then incubated for 1 hour at 37° C. in a box inside an INCU-Line incubator (VWR, France). A dosed brain section without washing was also put in the incubator.
After incubation, tissues were washed using 2 steps to remove unbound molecules from the tissue, firstly with a solution of methanol/water+0.1% TFA (7:3) corresponding to the antagonist washing solution. Secondly, the tissue is washed using only water solution (10 mL) and then placed into a desiccator for 15 min.
A DHB matrix was used for the analysis of all brain tissue sections with or without washing with the Lorazepam solution. This matrix was prepared at a concentration of 40 mg/ml in methanol/water+0.1% TFA (1:1, v/v).
The data was generated in positive reflectron mode.
The F2 factor allows comparison of the fine localization of the agonist and the antagonist in the white matter region and gives information about their similarity or dissimilarity.

[3] = Swiss, mouse, in vivo
Description: as §1, §2, §3, §4, §5, §6, §7, §8, §9, §10, §11

[4] = mouse kidney target tissue T1, positive control 100% and negative control 0% by definition
[5] = rat brain targeted area T1, positive marker Lorazepam = 100%

In the case of `Cc1cc2c(s1)Nc1ccccc1N=C2N1CCN(C)CC1` [Olanzapine], the “% Tg (global targeting coefficient)” value ([1]; mouse kidney target tissue T1) is reported as 40%, the “F1 (%)” value [1, 4] is reported as 52.2% and the “distribution in the kidney section (MS image, FIG. 6)” value ([1]; mouse kidney, oral 8 mg/kg) is reported as “mainly localized in the right half section of the medulla”. The “affinity / targeting behavior for the medulla region” value ([1]; mouse kidney, summary of Example 1) was “mean affinity”.

With `O=C1Nc2ccc(Cl)cc2C(c2ccccc2Cl)=NC1O` (centres unmarked) [Lorazepam] the “localization on the brain section (MSI)” value ([2]; control tissue section washed with the Lorazepam solution (100 pmol/μL, 1 hour at 37° C.)) was “especially in the white matter”, the “F1 (%)” value [2, 5] was 100% and the “F2 (%)” value [2, 5] was 100%. The “Normalized mean intensity/Tissue T1” value ([2]; rat brain, targeted area T1 (white matter, receptor binding site), Diazepam 15 mg/kg i.v., Lorazepam washing 100 pmol/μL) was 0.821, the “Normalized mean intensity/Tissue T2” value ([2]; rat brain, untargeted area T2 (rest of the brain), Diazepam 15 mg/kg i.v., Lorazepam washing 100 pmol/μL) was 0.21 and the “% Tar (targeting coefficient)” value ([2]; target area (Receptor) T1, rat brain) was 100%.

In the case of `CC[C@@H]([C@H](C)O)n1ncn(-c2ccc(N3CCN(c4ccc(OC[C@@H]5CO[C@@](Cn6cncn6)(c6ccc(F)cc6F)C5)cc4)CC3)cc2)c1=O` [Posaconazole], the “% Tg (global targeting coefficient)” value ([1]; mouse kidney target tissue T1) is reported as 100%, the “F1 (%)” value [1, 4] is reported as 100% and the “F2 (%)” value [1, 4] is reported as 100%. For the same compound, the “Mean normalized intensity per tissue T2” value ([1]; mouse kidney, non target tissue T2 (renal cortex), oral 8 mg/kg, MALDI imaging) was 0.055 and the “Mean normalized intensity per tissue T1” value ([1]; mouse kidney, target tissue T1 (medulla), oral 8 mg/kg, MALDI imaging) was 0.281.

In the case of `CN1C(=O)CC(C)(c2ccccc2)C1=O` (centres unmarked) [Methsuximide], the “% Tg (global targeting coefficient)” value [3] is reported as 0%, the “F1 (%)” value [3] is reported as 0% and the “F2 (%)” value [3] is reported as 0%. For the same compound, the “Mean normalized intensity per tissue T1” value ([3]; po, 8 mg/kg) was 0.062 and the “Mean normalized intensity per tissue T2” value ([3]; po, 8 mg/kg) was 0.241.
